Measured values published in the OligoGym collection.
Oligonucleotides are given in HELM: sugar(base)linkage, 5' to 3'; d 2'-deoxyribose, r ribose, m 2'-O-methylribose, p phosphate. ss, as = sense and antisense strand

What follows are substances tested against Mmp7 (rat) (assay: reporter assay of Huesken 2005). Conditions: siRNA.
Also: test concentration or dose not given here.

First: RNA1{r(G)p.r(C)p.r(C)p.r(A)p.r(C)p.r(U)p.r(C)p.r(A)p.r(U)p.r(G)p.r(A)p.r(A)p.r(C)p.r(U)p.r(U)p.r(G)p.r(G)p.r(C)p.r(C)p.d(T)p.d(T)}|RNA2{r(G)p.r(G)p.r(C)p.r(C)p.r(A)p.r(A)p.r(G)p.r(U)p.r(U)p.r(C)p.r(A)p.r(U)p.r(G)p.r(A)p.r(G)p.r(U)p.r(G)p.r(G)p.r(C)p.d(A)p.d(A)}$$$RNA1{StrandType:ss}|RNA2{StrandType:as}$
Second: RNA1{r(G)p.r(C)p.r(C)p.r(A)p.r(C)p.r(U)p.r(C)p.r(U)p.r(C)p.r(U)p.r(G)p.r(G)p.r(G)p.r(U)p.r(C)p.r(U)p.r(G)p.r(G)p.r(G)p.d(T)p.d(T)}|RNA2{r(C)p.r(C)p.r(C)p.r(A)p.r(G)p.r(A)p.r(C)p.r(C)p.r(C)p.r(A)p.r(G)p.r(A)p.r(G)p.r(A)p.r(G)p.r(U)p.r(G)p.r(G)p.r(C)p.d(C)p.d(A)}$$$RNA1{StrandType:ss}|RNA2{StrandType:as}$
The normalised inhibition (eCFP-eYFP dual reporter) of the first is lower: 62.2% for the first, 63.3% for the second.

First: RNA1{r(G)p.r(C)p.r(C)p.r(A)p.r(C)p.r(U)p.r(G)p.r(U)p.r(C)p.r(C)p.r(C)p.r(A)p.r(G)p.r(G)p.r(A)p.r(A)p.r(G)p.r(C)p.r(C)p.d(T)p.d(T)}|RNA2{r(G)p.r(G)p.r(C)p.r(U)p.r(U)p.r(C)p.r(C)p.r(U)p.r(G)p.r(G)p.r(G)p.r(A)p.r(C)p.r(A)p.r(G)p.r(U)p.r(G)p.r(G)p.r(C)p.d(A)p.d(G)}$$$RNA1{StrandType:ss}|RNA2{StrandType:as}$
Second: RNA1{r(G)p.r(C)p.r(C)p.r(A)p.r(G)p.r(A)p.r(U)p.r(G)p.r(U)p.r(U)p.r(G)p.r(C)p.r(A)p.r(G)p.r(A)p.r(A)p.r(U)p.r(U)p.r(C)p.d(T)p.d(T)}|RNA2{r(G)p.r(A)p.r(A)p.r(U)p.r(U)p.r(C)p.r(U)p.r(G)p.r(C)p.r(A)p.r(A)p.r(C)p.r(A)p.r(U)p.r(C)p.r(U)p.r(G)p.r(G)p.r(C)p.d(A)p.d(C)}$$$RNA1{StrandType:ss}|RNA2{StrandType:as}$
The normalised inhibition (eCFP-eYFP dual reporter) of the first is lower: 66% for the first, 100% for the second.

Compared with “RNA1{r(G)p.r(C)p.r(C)p.r(A)p.r(G)p.r(G)p.r(C)p.r(C)p.r(U)p.r(C)p.r(G)p.r(G)p.r(C)p.r(G)p.r(G)p.r(A)p.r(G)p.r(A)p.r(U)p.d(T)p.d(T)}|RNA2{r(A)p.r(U)p.r(C)p.r(U)p.r(C)p.r(C)p.r(G)p.r(C)p.r(C)p.r(G)p.r(A)p.r(G)p.r(G)p.r(C)p.r(C)p.r(U)p.r(G)p.r(G)p.r(C)p.d(C)p.d(C)}$$$RNA1{StrandType:ss}|RNA2{StrandType:as}$”, “RNA1{r(G)p.r(C)p.r(C)p.r(U)p.r(C)p.r(G)p.r(G)p.r(C)p.r(G)p.r(G)p.r(A)p.r(G)p.r(A)p.r(U)p.r(G)p.r(C)p.r(U)p.r(C)p.r(A)p.d(T)p.d(T)}|RNA2{r(U)p.r(G)p.r(A)p.r(G)p.r(C)p.r(A)p.r(U)p.r(C)p.r(U)p.r(C)p.r(C)p.r(G)p.r(C)p.r(C)p.r(G)p.r(A)p.r(G)p.r(G)p.r(C)p.d(C)p.d(T)}$$$RNA1{StrandType:ss}|RNA2{StrandType:as}$” is higher in normalised inhibition (eCFP-eYFP dual reporter): 36.1% for the first, 90.2% for the second.

Going from “RNA1{r(G)p.r(C)p.r(C)p.r(U)p.r(U)p.r(U)p.r(G)p.r(C)p.r(A)p.r(C)p.r(C)p.r(G)p.r(G)p.r(G)p.r(G)p.r(C)p.r(C)p.r(A)p.r(G)p.d(T)p.d(T)}|RNA2{r(C)p.r(U)p.r(G)p.r(G)p.r(C)p.r(C)p.r(C)p.r(C)p.r(G)p.r(G)p.r(U)p.r(G)p.r(C)p.r(A)p.r(A)p.r(A)p.r(G)p.r(G)p.r(C)p.d(A)p.d(T)}$$$RNA1{StrandType:ss}|RNA2{StrandType:as}$” to “RNA1{r(G)p.r(C)p.r(G)p.r(G)p.r(A)p.r(G)p.r(A)p.r(U)p.r(G)p.r(C)p.r(U)p.r(C)p.r(A)p.r(C)p.r(U)p.r(U)p.r(U)p.r(G)p.r(A)p.d(T)p.d(T)}|RNA2{r(U)p.r(C)p.r(A)p.r(A)p.r(A)p.r(G)p.r(U)p.r(G)p.r(A)p.r(G)p.r(C)p.r(A)p.r(U)p.r(C)p.r(U)p.r(C)p.r(C)p.r(G)p.r(C)p.d(C)p.d(G)}$$$RNA1{StrandType:ss}|RNA2{StrandType:as}$”, the normalised inhibition (eCFP-eYFP dual reporter) rises from 32.6% to 108%.

First: RNA1{r(G)p.r(C)p.r(U)p.r(C)p.r(A)p.r(C)p.r(U)p.r(U)p.r(U)p.r(G)p.r(A)p.r(C)p.r(A)p.r(A)p.r(G)p.r(G)p.r(A)p.r(U)p.r(G)p.d(T)p.d(T)}|RNA2{r(C)p.r(A)p.r(U)p.r(C)p.r(C)p.r(U)p.r(U)p.r(G)p.r(U)p.r(C)p.r(A)p.r(A)p.r(A)p.r(G)p.r(U)p.r(G)p.r(A)p.r(G)p.r(C)p.d(A)p.d(T)}$$$RNA1{StrandType:ss}|RNA2{StrandType:as}$
Second: RNA1{r(G)p.r(C)p.r(U)p.r(G)p.r(C)p.r(C)p.r(U)p.r(G)p.r(G)p.r(C)p.r(C)p.r(C)p.r(U)p.r(G)p.r(C)p.r(C)p.r(A)p.r(C)p.r(U)p.d(T)p.d(T)}|RNA2{r(A)p.r(G)p.r(U)p.r(G)p.r(G)p.r(C)p.r(A)p.r(G)p.r(G)p.r(G)p.r(C)p.r(C)p.r(A)p.r(G)p.r(G)p.r(C)p.r(A)p.r(G)p.r(C)p.d(C)p.d(T)}$$$RNA1{StrandType:ss}|RNA2{StrandType:as}$
The normalised inhibition (eCFP-eYFP dual reporter) of the first is higher: 102% for the first, 64.3% for the second.

Compared with “RNA1{r(G)p.r(C)p.r(U)p.r(U)p.r(C)p.r(G)p.r(C)p.r(A)p.r(A)p.r(G)p.r(G)p.r(G)p.r(G)p.r(A)p.r(G)p.r(A)p.r(U)p.r(C)p.r(A)p.d(T)p.d(T)}|RNA2{r(U)p.r(G)p.r(A)p.r(U)p.r(C)p.r(U)p.r(C)p.r(C)p.r(C)p.r(C)p.r(U)p.r(U)p.r(G)p.r(C)p.r(G)p.r(A)p.r(A)p.r(G)p.r(C)p.d(C)p.d(A)}$$$RNA1{StrandType:ss}|RNA2{StrandType:as}$”, “RNA1{r(G)p.r(G)p.r(A)p.r(A)p.r(A)p.r(C)p.r(A)p.r(C)p.r(U)p.r(C)p.r(U)p.r(A)p.r(G)p.r(G)p.r(C)p.r(C)p.r(A)p.r(U)p.r(G)p.d(T)p.d(T)}|RNA2{r(C)p.r(A)p.r(U)p.r(G)p.r(G)p.r(C)p.r(C)p.r(U)p.r(A)p.r(G)p.r(A)p.r(G)p.r(U)p.r(G)p.r(U)p.r(U)p.r(U)p.r(C)p.r(C)p.d(T)p.d(G)}$$$RNA1{StrandType:ss}|RNA2{StrandType:as}$” is lower in normalised inhibition (eCFP-eYFP dual reporter): 105% for the first, 89.7% for the second.

First: RNA1{r(G)p.r(G)p.r(A)p.r(A)p.r(A)p.r(U)p.r(U)p.r(U)p.r(U)p.r(A)p.r(C)p.r(C)p.r(U)p.r(U)p.r(C)p.r(A)p.r(C)p.r(G)p.r(A)p.d(T)p.d(T)}|RNA2{r(U)p.r(C)p.r(G)p.r(U)p.r(G)p.r(A)p.r(A)p.r(G)p.r(G)p.r(U)p.r(A)p.r(A)p.r(A)p.r(A)p.r(U)p.r(U)p.r(U)p.r(C)p.r(C)p.d(T)p.d(A)}$$$RNA1{StrandType:ss}|RNA2{StrandType:as}$
Second: RNA1{r(G)p.r(G)p.r(A)p.r(A)p.r(C)p.r(A)p.r(G)p.r(G)p.r(C)p.r(G)p.r(C)p.r(A)p.r(G)p.r(A)p.r(A)p.r(U)p.r(U)p.r(A)p.r(U)p.d(T)p.d(T)}|RNA2{r(A)p.r(U)p.r(A)p.r(A)p.r(U)p.r(U)p.r(C)p.r(U)p.r(G)p.r(C)p.r(G)p.r(C)p.r(C)p.r(U)p.r(G)p.r(U)p.r(U)p.r(C)p.r(C)p.d(C)p.d(A)}$$$RNA1{StrandType:ss}|RNA2{StrandType:as}$
The normalised inhibition (eCFP-eYFP dual reporter) of the first is higher: 127% for the first, 104% for the second.

“RNA1{r(G)p.r(G)p.r(A)p.r(A)p.r(G)p.r(C)p.r(C)p.r(G)p.r(G)p.r(A)p.r(G)p.r(A)p.r(A)p.r(G)p.r(U)p.r(G)p.r(A)p.r(C)p.r(C)p.d(T)p.d(T)}|RNA2{r(G)p.r(G)p.r(U)p.r(C)p.r(A)p.r(C)p.r(U)p.r(U)p.r(C)p.r(U)p.r(C)p.r(C)p.r(G)p.r(G)p.r(C)p.r(U)p.r(U)p.r(C)p.r(C)p.d(T)p.d(G)}$$$RNA1{StrandType:ss}|RNA2{StrandType:as}$” and “RNA1{r(G)p.r(G)p.r(A)p.r(C)p.r(A)p.r(A)p.r(A)p.r(C)p.r(U)p.r(G)p.r(A)p.r(G)p.r(G)p.r(G)p.r(A)p.r(A)p.r(A)p.r(U)p.r(G)p.d(T)p.d(T)}|RNA2{r(C)p.r(A)p.r(U)p.r(U)p.r(U)p.r(C)p.r(C)p.r(C)p.r(U)p.r(C)p.r(A)p.r(G)p.r(U)p.r(U)p.r(U)p.r(G)p.r(U)p.r(C)p.r(C)p.d(A)p.d(C)}$$$RNA1{StrandType:ss}|RNA2{StrandType:as}$” are the same in normalised inhibition (eCFP-eYFP dual reporter): 83% for the first, 83% for the second.

Compared with “RNA1{r(G)p.r(G)p.r(A)p.r(C)p.r(G)p.r(G)p.r(A)p.r(U)p.r(G)p.r(G)p.r(U)p.r(G)p.r(A)p.r(G)p.r(G)p.r(A)p.r(C)p.r(U)p.r(C)p.d(T)p.d(T)}|RNA2{r(G)p.r(A)p.r(G)p.r(U)p.r(C)p.r(C)p.r(U)p.r(C)p.r(A)p.r(C)p.r(C)p.r(A)p.r(U)p.r(C)p.r(C)p.r(G)p.r(U)p.r(C)p.r(C)p.d(A)p.d(G)}$$$RNA1{StrandType:ss}|RNA2{StrandType:as}$”, “RNA1{r(G)p.r(G)p.r(A)p.r(C)p.r(U)p.r(C)p.r(A)p.r(G)p.r(G)p.r(C)p.r(G)p.r(U)p.r(G)p.r(A)p.r(A)p.r(C)p.r(U)p.r(U)p.r(C)p.d(T)p.d(T)}|RNA2{r(G)p.r(A)p.r(A)p.r(G)p.r(U)p.r(U)p.r(C)p.r(A)p.r(C)p.r(G)p.r(C)p.r(C)p.r(U)p.r(G)p.r(A)p.r(G)p.r(U)p.r(C)p.r(C)p.d(T)p.d(C)}$$$RNA1{StrandType:ss}|RNA2{StrandType:as}$” is lower in normalised inhibition (eCFP-eYFP dual reporter): 81.1% for the first, 70.4% for the second.

Compared with “RNA1{r(G)p.r(G)p.r(A)p.r(G)p.r(A)p.r(C)p.r(U)p.r(G)p.r(G)p.r(A)p.r(A)p.r(A)p.r(G)p.r(C)p.r(U)p.r(G)p.r(U)p.r(C)p.r(C)p.d(T)p.d(T)}|RNA2{r(G)p.r(G)p.r(A)p.r(C)p.r(A)p.r(G)p.r(C)p.r(U)p.r(U)p.r(U)p.r(C)p.r(C)p.r(A)p.r(G)p.r(U)p.r(C)p.r(U)p.r(C)p.r(C)p.d(G)p.d(G)}$$$RNA1{StrandType:ss}|RNA2{StrandType:as}$”, “RNA1{r(G)p.r(G)p.r(A)p.r(G)p.r(U)p.r(A)p.r(U)p.r(G)p.r(C)p.r(A)p.r(A)p.r(A)p.r(U)p.r(C)p.r(C)p.r(C)p.r(A)p.r(C)p.r(U)p.d(T)p.d(T)}|RNA2{r(A)p.r(G)p.r(U)p.r(G)p.r(G)p.r(G)p.r(A)p.r(U)p.r(U)p.r(U)p.r(G)p.r(C)p.r(A)p.r(U)p.r(A)p.r(C)p.r(U)p.r(C)p.r(C)p.d(A)p.d(C)}$$$RNA1{StrandType:ss}|RNA2{StrandType:as}$” is higher in normalised inhibition (eCFP-eYFP dual reporter): 88.7% for the first, 96.7% for the second.
